Measured values taken from patent publication US20140234455A1, “ANTIMICROBIAL COMPOSITION, METHOD FOR ITS PREPARATION AND ITS USE” (PATOLAB OY, priority 2011, published 2014).

Assays:
Assay type in all cases: cell-based
Conditions in all cases: tested after one week washing, 24 hours incubation, Example 2 stock diluted 1:1 with tap water
Enteroc. = assay: Challenge test on a steel plate (EN 13697)
C. albicans = assay: Challenge test on a steel plate (EN 13697)
A. niger = assay: Challenge test on a steel plate (EN 13697)
[1] = system: Staphylococcus aureus (MRSA); assay: ISO 20645/20743 challenge test in accordance with EN 13697 on a steel plate
PS. aerug. = assay: Challenge test on a steel plate (EN 13697)
E. coli = assay: Challenge test on a steel plate (EN 13697)
Protocol: The test was performed after one week washing the steel plate with the composition.

CCO [70% ethanol, ethanol]
log 1: Reduction in growth of microorganisms, Enteroc. (Enteroc.) | Reduction in growth of microorganisms, C. albicans (C. albicans) | Reduction in growth of microorganisms, A. niger (A. niger) | Reduction in growth of microorganisms, MRSA (Staphylococcus aureus) [1] | Reduction in growth of microorganisms, PS. aerug. (PS. aerug.) | Reduction in growth of microorganisms, E. coli (E. coli)
